Assay results as given in PMC7835878, “A Selective Competitive Inhibitor of Aldehyde Dehydrogenase 1A3 Hinders Cancer Cell Growth, Invasiveness and Stemness In Vitro” (Cancers, 2021).

T1: Aldehyde dehydrogenase 1A3 (ALDH1A3) (Homo sapiens, UniProt P47895)
T1 sequence (P47895 2-512): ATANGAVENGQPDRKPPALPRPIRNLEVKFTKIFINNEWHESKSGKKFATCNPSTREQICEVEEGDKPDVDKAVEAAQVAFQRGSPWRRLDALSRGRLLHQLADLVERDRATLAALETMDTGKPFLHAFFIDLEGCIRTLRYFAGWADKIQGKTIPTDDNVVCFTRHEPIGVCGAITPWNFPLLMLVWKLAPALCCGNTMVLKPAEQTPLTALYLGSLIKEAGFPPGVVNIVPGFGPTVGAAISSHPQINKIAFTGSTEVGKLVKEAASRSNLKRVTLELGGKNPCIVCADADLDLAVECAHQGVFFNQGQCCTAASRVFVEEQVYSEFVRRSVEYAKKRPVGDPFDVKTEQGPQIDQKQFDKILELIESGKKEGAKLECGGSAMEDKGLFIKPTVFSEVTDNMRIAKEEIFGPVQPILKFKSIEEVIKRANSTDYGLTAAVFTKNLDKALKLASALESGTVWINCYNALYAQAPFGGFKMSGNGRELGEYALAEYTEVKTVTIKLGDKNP


Columns and labels:
[1] = target: T1, Aldehyde dehydrogenase 1A3 (ALDH1A3); assay: X-ray crystal structure of the complex with NR6 (protein preincubated with […] NAD+); format: binding
[2] = target: the molecule itself; assay: crystal structure; ALDH1A3 at 8 mg/mL preincubated with 1 mM NAD+ and 300 uM NR6; sitting drop vapor diffusion, 2.4 M sodium malonate pH 7.0, 20 °C; space group P2(1)22(1), two molecules per asymmetric unit

| Molecule | X-ray crystal structure of the complex with NR6 (protein preincubated with 1 mM) [1] | binding result [2] |
| --- | --- | --- |
| NC(=O)c1ccc[n+]([C@@H]2O[C@H](COP(=O)([O-])OP(=O)(O)OC[C@H]3O[C@@H](n4cnc5c(N)ncnc54)[C@H](O)[C@@H]3O)[C@@H](O)[C@H]2O)c1 [NAD+] | both are bonded with one molecule of NAD^+ and one molecule of NR6 |  |
| human aldehyde dehydrogenase 1A3 (enzyme, Aldehyde dehydrogenase 1A3 (ALDH1A3), human, recombinant; also called ALDH1A3; hALDH1A3; source: recombinant, purified) MATANGAVENGQPDRKPPALPRPIRNLEVKFTKIFINNEWHESKSGKKFATCNPSTREQICEVEEGDKPDVDKAVEAAQVAFQRGSPWRRLDALSRGRLLHQLADLVERDRATLAALETMDTGKPFLHAFFIDLEGCIRTLRYFAGWADKIQGKTIPTDDNVVCFTRHEPIGVCGAITPWNFPLLMLVWKLAPALCCGNTMVLKPAEQTPLTALYLGSLIKEAGFPPGVVNIVPGFGPTVGAAISSHPQINKIAFTGSTEVGKLVKEAASRSNLKRVTLELGGKNPCIVCADADLDLAVECAHQGVFFNQGQCCTAASRVFVEEQVYSEFVRRSVEYAKKRPVGDPFDVKTEQGPQIDQKQFDKILELIESGKKEGAKLECGGSAMEDKGLFIKPTVFSEVTDNMRIAKEEIFGPVQPILKFKSIEEVIKRANSTDYGLTAAVFTKNLDKALKLASALESGTVWINCYNALYAQAPFGGFKMSGNGRELGEYALAEYTEVKTVTIKLGDKNP |  | binds |
